Experimental: The capacity of sodium bicarbonate to neutralize acid saliva was assessed. A pool of saliva was collected from 5 individuals, and the normal pH of the saliva was measured before brushing or eating. […] In order to simulate an acidic challenge, the pH of the saliva was adjusted to 2.5 with 0.01M HCl.
The saliva was titrated with a 3M sodium bicarbonate solution and measured the volume of solution necessary to neutralize the saliva to a pH of 6.8.

- volume needed to neutralize the acidic saliva to a pH of 7.0 (3M solution): 2.0 mLs
Compound: O=C([O-])O.[Na+] [Sodium Bicarbonate, sodium bicarbonate]
- rinsing time sufficient to help neutralize the saliva (rinsing with a sodium bicarbonate solution): 30 s
